Several values for one entry are separate records, joined by “and”; a condition that tells them apart may be missing. Equal entries are not always repeated.
Key:
[1] = system: tobacco (var Samsun) plantlets on liquid culture medium; assay: HST + HPPD herbicide effects on tobacco seedlings on liquid culture medium; assay type: in vivo; conditions: for % Injury, plus Mesotrione (0.0005 ppm) / % Injury, plus Mesotrione (0.001 ppm) / % Injury (bleaching), compound 2.13 only: liquid culture, 20 DAT
Description: In an alternative herbicide test procedure tobacco (var Samsun) plantlets germinated aseptically in agar made up in 1/3 strength Murashige and Skoog salts medium are transferred after 4 d to float on top of 2.9 ml of sterile liquid culture medium (half strength Murashige and Skoog medium containing 30 mM sucrose) in wells of 12 well plates. Test compounds are added at various doses and bleaching damage is assessed after 14-20 DAT. The plantlets are kept covered under clear perspex and grown at 18° C. (night) and 24° C. (day) under a 1611 day (˜500-900 umol/m^2), 8 h darkness regime Plantlets continue to grow and produce new tissue over the 14-20 DAT period but are bleached and grow less in the presence of controlling concentrations of herbicide.

weeds = assay: Glasshouse weed control by HST/HPPD (mesotrione) mixtures, pre-emergence; assay type: in vivo; conditions: for colby: Colby synergy score; for % Damage at 14 DAA, 1 g ai ha^−1 mesotrione / % Damage at 14 DAA, no-mesotrione: N = 3
Description: Weed seeds are planted out in trays containing suitable soil (for example 50% peat, 50% John Innes soil no 3) and grown in the glass house conditions under 24-27° C. day; 18-21° C. night and approximately a 14 h (or longer in UK summer) photoperiod. Humidity is ˜65% and light levels up to 2000 μmol/m^2 at bench level. Trays are sprayed with test chemicals dissolved in water with 0.2-0.25% X-77 surfactant and sprayed from a boom on a suitable track sprayer moving at about 2 mph in a suitable track sprayer (for example a DeVries spray chamber with the nozzle about 2 inches from the plant tops). Spray volume is suitably 500-1000 l/ha. Sprays are carried out both pre-emergence and over small plants at about 7-12 d post-emergence
Plants are assessed 14 DAT and herbicidal damage is scored on a scale from 0 to 100%. The HST inhibitor compound 2.30 (designated compound A in table 16 and 17), haloxydine (compound 1.1) and compound 2.13 (designated compound AE in tables 16 and 17) are sprayed at rates between 0 and 500 g/ha.

[2] = range of rates of compound 2.13 plus the higher dose of mesotrione
[3] = ALOMY, 16 g/ha + mesotrione 1 g ai/ha
[4] = ALOMY, 31 g/ha + mesotrione 1 g ai/ha
[5] = ALOMY, 63 g/ha + mesotrione 1 g ai/ha
[6] = ALOMY, 125 g/ha + mesotrione 1 g ai/ha
[7] = ALOMY, 250 g/ha + mesotrione 1 g ai/ha
[8] = ALOMY, 500 g/ha + mesotrione 1 g ai/ha
[9] = AMARE, 16 g/ha + mesotrione 1 g ai/ha
[10] = AMARE, 31 g/ha + mesotrione 1 g ai/ha
[11] = AMARE, 63 g/ha + mesotrione 1 g ai/ha
[12] = AMARE, 125 g/ha + mesotrione 1 g ai/ha
[13] = AMARE, 250 g/ha + mesotrione 1 g ai/ha
[14] = AMARE, 500 g/ha + mesotrione 1 g ai/ha
[15] = ECHCG, 16 g/ha + mesotrione 1 g ai/ha
[16] = ECHCG, 31 g/ha + mesotrione 1 g ai/ha

SMILES: O=c1c(-c2c(F)ccc(F)c2Cl)c(O)c2cccnc2n1CC(F)F [Compound 2.13]
- % Injury, plus Mesotrione (0.0005 ppm) ([1]; compound 2.13 0.01 ppm + mesotrione 0.0005 ppm): 0%
- % Injury, plus Mesotrione (0.001 ppm) ([1]; compound 2.13 0.01 ppm + mesotrione 0.001 ppm): 40%
- % Injury (bleaching), compound 2.13 only ([1]; compound 2.13 0.01 ppm): 0%
- % Injury, plus Mesotrione (0.0005 ppm) ([1]; compound 2.13 0.03 ppm + mesotrione 0.0005 ppm): 0%
- % Injury, plus Mesotrione (0.001 ppm) ([1]; compound 2.13 0.03 ppm + mesotrione 0.001 ppm): 60%
- % Injury (bleaching), compound 2.13 only ([1]; compound 2.13 0.03 ppm): 0%
- % Injury, plus Mesotrione (0.0005 ppm) ([1]; compound 2.13 0.09 ppm + mesotrione 0.0005 ppm): 0%
- % Injury, plus Mesotrione (0.001 ppm) ([1]; compound 2.13 0.09 ppm + mesotrione 0.001 ppm): 80%
- % Injury (bleaching), compound 2.13 only ([1]; compound 2.13 0.09 ppm): 0%
- % Injury, plus Mesotrione (0.0005 ppm) ([1]; compound 2.13 0.28 ppm + mesotrione 0.0005 ppm): 0%
- % Injury, plus Mesotrione (0.001 ppm) ([1]; compound 2.13 0.28 ppm + mesotrione 0.001 ppm): 80%
- % Injury (bleaching), compound 2.13 only ([1]; compound 2.13 0.28 ppm): 0%
- % Injury, plus Mesotrione (0.0005 ppm) ([1]; compound 2.13 0.85 ppm + mesotrione 0.0005 ppm): 40%
- % Injury, plus Mesotrione (0.001 ppm) ([1]; compound 2.13 0.85 ppm + mesotrione 0.001 ppm): 90%
- % Injury (bleaching), compound 2.13 only ([1]; compound 2.13 0.85 ppm): 0%
- % Injury, plus Mesotrione (0.0005 ppm) ([1]; compound 2.13 2.56 ppm + mesotrione 0.0005 ppm): 90%
- % Injury, plus Mesotrione (0.001 ppm) ([1]; compound 2.13 2.56 ppm + mesotrione 0.001 ppm): 90%
- % Injury (bleaching), compound 2.13 only ([1]; compound 2.13 2.56 ppm): 0%
- % Injury, plus Mesotrione (0.0005 ppm) ([1]; compound 2.13 7.67 ppm + mesotrione 0.0005 ppm): 100%
- % Injury, plus Mesotrione (0.001 ppm) ([1]; compound 2.13 7.67 ppm + mesotrione 0.001 ppm): 100%
- % Injury (bleaching), compound 2.13 only ([1]; compound 2.13 7.67 ppm): 50%
- % Injury, plus Mesotrione (0.0005 ppm) ([1]; compound 2.13 23 ppm + mesotrione 0.0005 ppm): 100%
- % Injury, plus Mesotrione (0.001 ppm) ([1]; compound 2.13 23 ppm + mesotrione 0.001 ppm): 100%
- % Injury (bleaching), compound 2.13 only ([1]; compound 2.13 23 ppm): 100%
- bleaching expected (Colby) [1, 2]: 20%
- bleaching observed [1, 2]: 80% and 90%
- colby (weeds; [3]): 0%
- % Damage at 14 DAA, 1 g ai ha^−1 mesotrione (weeds; [3]): 0%
- % Damage at 14 DAA, no-mesotrione (weeds; ALOMY, 16 g/ha): 0%
- colby (weeds; [4]): 0%
- % Damage at 14 DAA, 1 g ai ha^−1 mesotrione (weeds; [4]): 0%
- % Damage at 14 DAA, no-mesotrione (weeds; ALOMY, 31 g/ha): 0%
- colby (weeds; [5]): 0%
- % Damage at 14 DAA, 1 g ai ha^−1 mesotrione (weeds; [5]): 0%
- % Damage at 14 DAA, no-mesotrione (weeds; ALOMY, 63 g/ha): 0%
- colby (weeds; [6]): 0%
- % Damage at 14 DAA, 1 g ai ha^−1 mesotrione (weeds; [6]): 0%
- % Damage at 14 DAA, no-mesotrione (weeds; ALOMY, 125 g/ha): 0%
- colby (weeds; [7]): 0%
- % Damage at 14 DAA, 1 g ai ha^−1 mesotrione (weeds; [7]): 0%
- % Damage at 14 DAA, no-mesotrione (weeds; ALOMY, 250 g/ha): 0%
- colby (weeds; [8]): −1%
- % Damage at 14 DAA, 1 g ai ha^−1 mesotrione (weeds; [8]): 0%
- % Damage at 14 DAA, no-mesotrione (weeds; ALOMY, 500 g/ha): 2%
- colby (weeds; [9]): 5%
- % Damage at 14 DAA, 1 g ai ha^−1 mesotrione (weeds; [9]): 7%
- % Damage at 14 DAA, no-mesotrione (weeds; AMARE, 16 g/ha): 0%
- colby (weeds; [10]): 13%
- % Damage at 14 DAA, 1 g ai ha^−1 mesotrione (weeds; [10]): 23%
- % Damage at 14 DAA, no-mesotrione (weeds; AMARE, 31 g/ha): 8%
- colby (weeds; [11]): 4%
- % Damage at 14 DAA, 1 g ai ha^−1 mesotrione (weeds; [11]): 33%
- % Damage at 14 DAA, no-mesotrione (weeds; AMARE, 63 g/ha): 28%
- colby (weeds; [12]): 12%
- % Damage at 14 DAA, 1 g ai ha^−1 mesotrione (weeds; [12]): 45%
- % Damage at 14 DAA, no-mesotrione (weeds; AMARE, 125 g/ha): 32%
- colby (weeds; [13]): 3%
- % Damage at 14 DAA, 1 g ai ha^−1 mesotrione (weeds; [13]): 57%
- % Damage at 14 DAA, no-mesotrione (weeds; AMARE, 250 g/ha): 53%
- colby (weeds; [14]): 9%
- % Damage at 14 DAA, 1 g ai ha^−1 mesotrione (weeds; [14]): 70%
- % Damage at 14 DAA, no-mesotrione (weeds; AMARE, 500 g/ha): 60%
- colby (weeds; [15]): 0%
- % Damage at 14 DAA, 1 g ai ha^−1 mesotrione (weeds; [15]): 0%
- % Damage at 14 DAA, no-mesotrione (weeds; ECHCG, 16 g/ha): 0%
- colby (weeds; [16]): 0%
- % Damage at 14 DAA, 1 g ai ha^−1 mesotrione (weeds; [16]): 0%

From patent publication US20110173718A1, “HERBICIDE TOLERANT PLANTS” (SYNGENTA CROP PROTECTION, INC., priority 2008, published 2011)
